Data reported in patent publication US20260317320A1, “C5AR1 ANTAGONISTS AND USES THEREOF” (Vanqua Bio, Inc., priority 2022, published 2026).
Read-outs that look alike come from different tables or passages of the source.

Assays:
[1] = target: T1, complement C5a receptor 1 (C5aR1) (Homo sapiens, UniProt P21730); assay: β-arrestin recruitment via C5aR1 activation in live CHO-K1 cells (PathHunter), agonist mode; type: cell-based
T1 construct: β-galactosidase fragment (PathHunter enzyme complementation); host or cells: CHO-K1 (PathHunter CHO-K1 C5aR1 β-arrestin cell line)
T1 sequence (P21730 1-350): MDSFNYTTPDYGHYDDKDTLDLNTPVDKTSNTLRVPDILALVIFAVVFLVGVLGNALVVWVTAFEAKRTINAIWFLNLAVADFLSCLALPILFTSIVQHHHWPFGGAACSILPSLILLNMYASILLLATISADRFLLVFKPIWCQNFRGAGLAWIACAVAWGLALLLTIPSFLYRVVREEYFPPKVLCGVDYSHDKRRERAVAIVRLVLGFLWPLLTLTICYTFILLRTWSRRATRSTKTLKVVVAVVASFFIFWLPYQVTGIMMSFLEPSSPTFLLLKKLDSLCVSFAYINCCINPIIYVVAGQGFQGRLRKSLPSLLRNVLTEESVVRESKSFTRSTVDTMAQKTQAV
Protocol: (§1) Exemplary compounds were evaluated for classical GPCR β-arrestin recruitment via complement C5a receptor 1 (C5aR1) activation in live CHO-K1 cells. This cell line expresses two fragments of the […] protein coupled to β-arrestin and C5aR1. Complementation of the two fragments allows for the assessment of both C5aR1 agonism and antagonism. Recombinant hC5a (EC90) was used as the competing natural agonist against disclosed compounds (more information on the expanded protocol and cell line can be found on the manufacturer's website: PathHunter® CHO-K1 C5aR1 β-arrestin cell line, DiscoverX, Catalog No. 93-0557C2). […] IC50 ranges: A: IC50≤500 nM; B: 500 nM<IC50≤5 uM; C: 5 uM<IC50≤100 uM; D: IC50>100 uM.

[2] = target: T1, complement C5a receptor 1 (C5aR1); assay: β-arrestin recruitment via C5aR1 activation in live CHO-K1 cells (PathHunter), antagonist mode; type: cell-based; conditions: antagonist mode; recombinant hC5a (EC90) as competing natural agonist; live CHO-K1 cells; read-out: [Antagonist] B-arrestin2 recruitment: Average IC50
Protocol: as §1

| Compound | [Agonist] B-arrestin2 recruitment: Average EC50 (nM) [1] | IC50 [2] | [Agonist] B-arrestin2 recruitment: Average EC50 (nM) ([1]; at 10 μM) |
| --- | --- | --- | --- |
| Cc1cccc(F)c1N1CCC(c2cc3nccnc3n([C@@H]3CCCc4nccnc43)c2=O)CC1 [43a, (R)-7-(1-(2-Fluoro-6-methylphenyl)piperidin-4-yl)-5-(5,6,7,8-tetrahydroquinoxalin-5-yl)pyrido[2,3-b]pyrazin-6(5H)-one] | Non-Active | 0.5 to 5 µM |  |
| Cc1cccc(F)c1N1CCC(c2cc3nccnc3n([C@H]3CCCc4nccnc43)c2=O)CC1 [43b, (S)-7-(1-(2-Fluoro-6-methylphenyl)piperidin-4-yl)-5-(5,6,7,8-tetrahydroquinoxalin-5-yl)pyrido[2,3-b]pyrazin-6(5H)-one] | Non-Active | 0.5 to 5 µM |  |
| Cc1cccc(F)c1N1CCC(c2cc3nccnc3n([C@@H]3CCCc4ncccc43)c2=O)CC1 [49a, (R)-7-(1-(2-Fluoro-6-methylphenyl)piperidin-4-yl)-5-(5,6,7,8-tetrahydroquinolin-5-yl)pyrido[2,3-b]pyrazin-6(5H)-one] | Non-Active | 5 to 100 µM |  |
| Cc1cccc(F)c1N1CCC(c2cc3nccnc3n([C@H]3CCCc4ncccc43)c2=O)CC1 [49b, (S)-7-(1-(2-Fluoro-6-methylphenyl)piperidin-4-yl)-5-(5,6,7,8-tetrahydroquinolin-5-yl)pyrido[2,3-b]pyrazin-6(5H)-one] | Non-Active | 0.5 to 5 µM |  |
| Cc1cccc(F)c1N1CCC(c2cc3nccnc3n([C@@H]3CCCc4ccccc43)c2=O)CC1 [53a, (R)-7-(1-(2-Fluoro-6-methylphenyl)piperidin-4-yl)-5-(1,2,3,4-tetrahydronaphthalen-1-yl)pyrido[2,3-b]pyrazin-6(5H)-one] | Non-Active | 5 to 100 µM |  |
| Cc1cccc(F)c1N1CCC(c2cc3nccnc3n([C@H]3CCCc4ccccc43)c2=O)CC1 [53b, (S)-7-(1-(2-Fluoro-6-methylphenyl)piperidin-4-yl)-5-(1,2,3,4-tetrahydronaphthalen-1-yl)pyrido[2,3-b]pyrazin-6(5H)-one] | Non-Active | 0.5 to 5 µM |  |
| Cc1cnc2cc(C3CCN(c4c(C)cccc4F)CC3)c(=O)n([C@H]3CCCc4nccnc43)c2n1 [61a, (S)-7-(1-(2-Fluoro-6-methylphenyl)piperidin-4-yl)-3-methyl-5-(5,6,7,8-tetrahydroquinoxalin-5-yl) pyrido[2,3-b]pyrazin-6(5H)-one] | Non-Active | 0.5 to 5 µM |  |
| Cc1cnc2cc(C3CCN(c4c(C)cccc4F)CC3)c(=O)n([C@@H]3CCCc4nccnc43)c2n1 [61b, (R)-7-(1-(2-fluoro-6-methylphenyl)piperidin-4-yl)-3-methyl-5-(5,6,7,8-tetrahydroquinoxalin-5-yl)pyrido[2,3-b]pyrazin-6(5H)-one] | Non-Active | < 0.5 µM |  |
| Cc1cnc2cc([C@H]3CC[C@@H](c4c(C)ccnc4F)CC3)c(=O)n(Cc3nccnc3C)c2n1 [135A, 7-((1s,4s)-4-(2-Fluoro-4-methylpyridin-3-yl)cyclohexyl)-3-methyl-5-((3-methylpyrazin-2-yl)methyl)pyrido[2,3-b]pyrazin-6(5H)-one] |  | 5 to 100 µM | Non-Active at 10 μM |
| Cc1cnc2cc([C@H]3CC[C@H](c4c(C)ccnc4F)CC3)c(=O)n(Cc3nccnc3C)c2n1 [135B, 7-((1r,4r)-4-(2-Fluoro-4-methylpyridin-3-yl)cyclohexyl)-3-methyl-5-((3-methylpyrazin-2-yl)methyl)pyrido[2,3-b]pyrazin-6(5H)-one] |  | 5 to 100 µM | Non-Active at 10 μM |
| Cc1cnc2cc([C@H]3CC[C@@H](c4c(C)cccc4F)CC3)c(=O)n(Cc3nccnc3C)c2n1 [137A, (S)-7-((1s,4s)-4-(2-Fluoro-6-methylphenyl)cyclohexyl)-3-methyl-5-((3-methylpyrazin-2-yl)methyl)pyrido[2,3-b]pyrazin-6(5H)-one] | Non-Active | 5 to 100 µM |  |
| Cc1cnc2cc([C@H]3CC[C@H](c4c(C)cccc4F)CC3)c(=O)n(Cc3nccnc3C)c2n1 [137B, (R)-7-((1r,4r)-4-(2-Fluoro-6-methylphenyl)cyclohexyl)-3-methyl-5-((3-methylpyrazin-2-yl)methyl)pyrido[2,3-b]pyrazin-6(5H)-one] |  | < 0.5 µM | Non-Active at 10 μM |
| Cc1ccc2nc(C3CCN(c4c(C)cccc4F)CC3)c(=O)n(Cc3ncccc3C(F)(F)F)c2c1 [142A, 3-(1-(2-Fluoro-6-methylphenyl)piperidin-4-yl)-7-methyl-1-((3-(trifluoromethyl)pyridin-2-yl)methyl)quinoxalin-2(1H)-one] | Non-Active | > 100 µM |  |
| Cc1cnc2cc([C@H]3CC[C@H](c4c(C)ccnc4F)CC3)c(=O)n(Cc3nccnc3C(F)(F)F)c2n1 [143A, 7-((1r,4r)-4-(2-Fluoro-4-methylpyridin-3-yl)cyclohexyl)-3-methyl-5-((3-(trifluoromethyl)pyrazin-2-yl)methyl)pyrido[2,3-b]pyrazin-6(5H)-one] | Non-Active | < 0.5 µM |  |
| Cc1cnc2cc([C@H]3CC[C@@H](c4c(C)ccnc4F)CC3)c(=O)n(Cc3nccnc3C(F)(F)F)c2n1 [143B, 7-((1s,4s)-4-(2-Fluoro-4-methylpyridin-3-yl)cyclohexyl)-3-methyl-5-((3-(trifluoromethyl)pyrazin-2-yl)methyl)pyrido[2,3-b]pyrazin-6(5H)-one] | Non-Active | 0.5 to 5 µM |  |
| Cc1ccc2nc(C3CCN(c4c(C)cccc4F)CC3)c(=O)n(Cc3nccnc3C(F)(F)F)c2c1 [144A, 3-(1-(2-Fluoro-6-methylphenyl)piperidin-4-yl)-7-methyl-1-((3-(trifluoromethyl)pyrazin-2-yl)methyl)quinoxalin-2(1H)-one] |  | > 100 µM | Non-Active at 10 μM |
| Cc1ccc2c(c1)nc(C1CCN(c3c(C)cccc3F)CC1)c(=O)n2Cc1nccnc1C(F)(F)F [144B, 3-(1-(2-Fluoro-6-methylphenyl)piperidin-4-yl)-6-methyl-1-((3-(trifluoromethyl)pyrazin-2-yl)methyl)quinoxalin-2(1H)-one] |  | > 100 µM | Non-Active at 10 μM |
| Cc1cnc2cc([C@H]3CC[C@@H](c4c(C)ccnc4F)CC3)c(=O)n(Cc3nccnc3C(F)F)c2n1 [146A, 5-((3-(Difluoromethyl)pyrazin-2-yl)methyl)-7-((1s,4s)-4-(2-fluoro-4-methylpyridin-3-yl)cyclohexyl)-3-methylpyrido[2,3-b]pyrazin-6(5H)-one] |  | 5 to 100 µM | Non-Active at 10 μM |
| Cc1cnc2cc([C@H]3CC[C@H](c4c(C)ccnc4F)CC3)c(=O)n(Cc3nccnc3C(F)F)c2n1 [146B, 5-((3-(Difluoromethyl)pyrazin-2-yl)methyl)-7-((1r,4r)-4-(2-fluoro-4-methylpyridin-3-yl)cyclohexyl)-3-methylpyrido[2,3-b]pyrazin-6(5H)-one] |  | 0.5 to 5 µM | Non-Active at 10 μM |
| Cc1cnc2cc([C@H]3CC[C@@H](c4c(C)ccnc4F)CC3)c(=O)n(Cc3ncccc3C(F)(F)F)c2n1 [147A, 7-((1s,4s)-4-(2-Fluoro-4-methylpyridin-3-yl)cyclohexyl)-3-methyl-5-((3-(trifluoromethyl)pyridin-2-yl)methyl)pyrido[2,3-b]pyrazin-6(5H)-one] |  | < 0.5 µM | Non-Active at 10 μM |
| Cc1cnc2cc([C@H]3CC[C@H](c4c(C)ccnc4F)CC3)c(=O)n(Cc3ncccc3C(F)(F)F)c2n1 [147B, 7-((1r,4r)-4-(2-Fluoro-4-methylpyridin-3-yl)cyclohexyl)-3-methyl-5-((3-(trifluoromethyl)pyridin-2-yl)methyl)pyrido[2,3-b]pyrazin-6(5H)-one] | Non-Active | < 0.5 µM |  |
| Cc1cnc2cc([C@H]3CC[C@@H](c4c(C)cccc4F)CC3)c(=O)n(Cc3nccnc3C(F)F)c2n1 [148A, 5-((3-(Difluoromethyl)pyrazin-2-yl)methyl)-7-((1s,4s)-4-(2-fluoro-6-methylphenyl)cyclohexyl)-3-methylpyrido[2,3-b]pyrazin-6(5H)-one] | Non-Active | 0.5 to 5 µM |  |
| Cc1cnc2cc([C@H]3CC[C@H](c4c(C)cccc4F)CC3)c(=O)n(Cc3nccnc3C(F)F)c2n1 [148B, 5-((3-(Difluoromethyl)pyrazin-2-yl)methyl)-7-((1r,4r)-4-(2-fluoro-6-methylphenyl)cyclohexyl)-3-methylpyrido[2,3-b]pyrazin-6(5H)-one] | Non-Active | < 0.5 µM |  |
